Source: patent publication US11214803B2, “Modulators of YAP1 expression” (Ionis Pharmaceuticals, Inc., priority 2019, dated 2022)
Strand notation (5' to 3'): a small letter for the sugar, then the base; units joined by * are phosphorothioate-linked, units joined directly phosphodiester-linked; [ ] holds rarer units or linkages, { } end groups; capitals alone tell only the bases. e = 2'-O-(2-methoxyethyl) (MOE); k = constrained ethyl (cEt); [5mC] = 5-methylcytosine; d = 2'-deoxy (DNA)

Tested on: Yap1 mRNA
Assay: Dose-dependent inhibition of human Yap1 in SNU-449 cells (Example 9, RTS36584)
Type: cell-based
Conditions: free uptake; for % UTC (Yap1 mRNA): approximately 48 hours; for IC50: linear regression on a log/linear plot
Summary of the method: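 Read-out was Yap1 mRNA (primer-probe RTS36584) normalised to total RNA by RIBOGREEN, given as % of untreated cells, with IC50 fitted by linear regression of log/linear data. Oligonucleotides were dosed by free uptake to SNU-449 cells, 10,000/well, for ~48 h.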

Substance | % UTC (Yap1 mRNA) (31.3 nM) [% UTC] | % UTC (Yap1 mRNA) (125.0 nM) [% UTC] | % UTC (Yap1 mRNA) (500.0 nM) [% UTC] | % UTC (Yap1 mRNA) (2000.00 nM) [% UTC] | IC50 [nM]
1198697 (kA*kG*dT*dG*dT*dA*dT*dG*dT*d[5mC]*dA*dG*kA*eA*kG*eA) [compound 1198697] | 60 | 29 | 7 | 1 | 40
1198698 (kA*kA*dG*dT*dG*dT*dA*dT*dG*dT*d[5mC]*dA*kG*eA*kA*eG) [compound 1198698] | 55 | 29 | 8 | 2 | 30
1198718 (kG*eA*kA*dA*dT*dT*dG*dT*d[5mC]*dT*d[5mC]*dA*eT*eG*k[5mC]*k[5mC]; antisense) [compound 1198718] | 87 | 37 | 14 | 4 | 100
1198719 (kG*eG*kA*dA*dA*dT*dT*dG*dT*d[5mC]*dT*d[5mC]*eA*eT*kG*k[5mC]; antisense) [compound 1198719] | 67 | 30 | 9 | 3 | 100
1198724 (kA*eG*kA*dG*dT*dA*dT*dG*dT*dG*dG*d[5mC]*eA*eA*kT*kA; antisense) [compound 1198724] | 56 | 25 | 8 | 3 | < 30
1198746 (kG*e[5mC]*kA*d[5mC]*dT*dT*dT*dT*dA*d[5mC]*dA*dT*eT*eA*kG*kG) [compound 1198746] | 49 | 24 | 9 | 3 | < 30
1198786 (kT*eG*kT*dA*dT*dG*dT*d[5mC]*dA*dG*dA*dA*eG*eA*kG*kT) [compound 1198786] | 63 | 32 | 11 | 2 | 100
1198787 (kA*eG*kT*dG*dT*dA*dT*dG*dT*d[5mC]*dA*dG*eA*eA*kG*kA; antisense) [compound 1198787] | 68 | 21 | 6 | 1 | 50
1198788 (kA*eA*kG*dT*dG*dT*dA*dT*dG*dT*d[5mC]*dA*eG*eA*kA*kG) [compound 1198788] | 64 | 30 | 7 | 2 | 100
1198799 (k[5mC]*eT*kA*dA*dG*dT*dA*dA*dG*dG*dT*dT*eT*e[5mC]*k[5mC]*k[5mC]; antisense) [compound 1198799] | 62 | 35 | 13 | 4 | 100
1198804 (kT*kG*dT*d[5mC]*dT*d[5mC]*dA*dT*dG*d[5mC]*d[5mC]*kT*eT*kA*eT*kA; antisense) [compound 1198804] | 71 | 48 | 19 | 5 | 100
1198805 (kA*kT*dT*dG*dT*d[5mC]*dT*d[5mC]*dA*dT*dG*k[5mC]*e[5mC]*kT*eT*kA; antisense) [compound 1198805] | 61 | 42 | 20 | 7 | 100
1198814 (kA*kG*dA*dG*dT*dA*dT*dG*dT*dG*dG*k[5mC]*eA*kA*eT*kA) [compound 1198814] | 63 | 25 | 6 | 3 | 40
1198815 (kT*kA*dG*dA*dG*dT*dA*dT*dG*dT*dG*kG*e[5mC]*kA*eA*kT; antisense) [compound 1198815] | 84 | 64 | 34 | 15 | 200
1198818 (kT*kA*dT*dT*dA*dG*dA*dG*dT*dA*dT*kG*eT*kG*eG*k[5mC]) [compound 1198818] | 68 | 33 | 15 | 5 | 100
1198832 (kG*k[5mC]*dA*d[5mC]*dT*dT*dT*dT*dA*d[5mC]*dA*kT*eT*kA*eG*kG; antisense) [compound 1198832] | 77 | 53 | 23 | 13 | 100
1198856 (k[5mC]*kT*dT*dA*dT*dA*dT*dG*dG*dT*dT*kT*eT*kG*eT*kG; antisense) [compound 1198856] | 72 | 55 | 24 | 7 | 100
1198857 (kT*k[5mC]*dT*dT*dA*dT*dA*dT*dG*dG*dT*kT*eT*kT*eG*kT) [compound 1198857] | 78 | 44 | 13 | 4 | 100
1198875 (kA*kA*dA*dG*dT*dG*dT*dA*dT*dG*dT*k[5mC]*eA*kG*eA*kA; antisense) [compound 1198875] | 61 | 23 | 4 | 1 | 40
1198877 (kT*kT*dA*dA*dA*dG*dT*dG*dT*dA*dT*kG*eT*k[5mC]*eA*kG; antisense) [compound 1198877] | 62 | 32 | 13 | 5 | 50
1198895 (kG*kG*dA*dA*dA*dT*dT*dG*dT*d[5mC]*dT*k[5mC]*dA*kT*dG*k[5mC]; antisense) [compound 1198895] | 62 | 37 | 16 | 9 | 100
1198900 (kA*kG*dA*dG*dT*dA*dT*dG*dT*dG*dG*k[5mC]*dA*kA*dT*kA; antisense) [compound 1198900] | 69 | 36 | 18 | 7 | 100
1198902 (kT*kT*dA*dG*dA*dG*dT*dA*dT*dG*dT*kG*dG*k[5mC]*dA*kA; antisense) [compound 1198902] | 74 | 46 | 22 | 10 | 100
1198904 (kT*kA*dT*dT*dA*dG*dA*dG*dT*dA*dT*kG*dT*kG*dG*k[5mC]; antisense) [compound 1198904] | 78 | 36 | 23 | 10 | 100
1198905 (kA*kT*dA*dT*dT*dA*dG*dA*dG*dT*dA*kT*dG*kT*dG*kG; antisense) [compound 1198905] | 75 | 43 | 21 | 6 | 100
1198911 (kG*kA*dG*dG*dT*dA*dT*dA*dA*d[5mC]*dT*kG*dG*kG*d[5mC]*kA; antisense) [compound 1198911] | 62 | 31 | 12 | 7 | 50
